Results as given in patent US20040047865A1, “Compositions and their uses” (priority 1995, published 2004).

Columns and labels:
[1] = system: XNA IgG, normal porcine endothelial cells (PAE-68#4); experiment: Two stage chromium release assay, inhibition of lysis by affinity-isolated IgG in the presence of sugars (FIG. 3); format: cell-based; conditions: IgG 80 μg/ml
Method: (§1) Briefly normal porcine endothelial cells were grown to confluence in 96well plates before being washed and labelled with ^51chromium. Excess label was removed and the cells were exposed to different concentrations of XNA. Unbound antibody was removed and 1/8 baby rabbit complement added for 1 hour at 37° C. Cell lysis was expressed as a percentage of the total counts associated with the endothelial cells, which could be detected in the medium after incubation of the cells with complement. […] Affinity-isolated IgM (10 μg/ml) or IgG (80 μg/ml) was incubated with endothelial cells as before in the presence of varying concentrations of four different sugar preparations. The cells were then washed and exposed to baby rabbit complement as previously described.

[2] = system: porcine endothelial cells; conditions: Neethling et al 1994; cited from earlier work
[3] = system: XNA IgM, normal porcine endothelial cells (PAE-68#4); experiment: Two stage chromium release assay, inhibition of lysis by affinity-isolated IgM in the presence of sugars (FIG. 3); format: cell-based; conditions: IgM 10 μg/ml
Method: as §1

[4] = system: pig endothelial cells; conditions: infusion into baboons; Ye et al 1994; cited from earlier work

Row | Compound | inhibition of cell lysis / IgG binding [1] | inhibition of the cytotoxic effects of human serum on porcine endothelial cells [2] | inhibition of cell lysis / XNA IgM binding [3] | protection of pig endothelial cells from killing by serum of infused baboons [4]
1 | OC[C@H]1O[C@H](O[C@H]2[C@@H](O)[C@@H](CO)OC(O)[C@@H]2O)[C@H](O)[C@@H](O)[C@H]1O (stereo partly shown) [B-disaccharide, Galα1,3Gal] | minimal difference | best inhibitors | – | –
2 | CC(=O)N[C@H]1C(O)O[C@H](CO)[C@@H](O[C@@H]2O[C@H](CO)[C@H](O)[C@H](O[C@H]3O[C@H](CO)[C@H](O)[C@H](O)[C@H]3O)[C@H]2O)[C@@H]1O (stereo partly shown) [B-trisaccharide, Galα1,3Galβ1,4GlcNAc] | minimal difference | best inhibitors | superior to B-disaccharide | –
3 | OC[C@H]1O[C@H](OCC2O[C@@H](O)[C@H](O)[C@@H](O)[C@@H]2O)[C@H](O)[C@@H](O)[C@H]1O (stereo partly shown) [melibiose] | – | – | – | A level of protection was afforded
4 | arabinogalactan | – | – | – | A level of protection was afforded
